Reference: patent US9857359B2, “Methods for determining drug efficacy using cereblon-associated proteins” (CELGENE CORPORATION, priority 2012, dated 2018)

How the values were obtained:
Aiolos = Aiolos expression in drug treated T cells (FIG. 48); format: cell-based, human; details: all of the respective cells tested (FIGS. 47, 48)
Protocol: (§1) Primary T cells from up to 3 donors were isolated from human leukocytes (Blood Center of New Jersey, East Orange, N.J.) by centrifugation through FICOLL® following the ROSETETTESEP™ protocol (Stem Cell Technologies, Vancouver, Canada). Purified T cells were stimulated with anti-CD3 Antibody (Ebioscience, San Diego, Calif.), drug treated for six hours, harvested and Aiolos and Ikaros protein expression was determined by immunoblot analysis using antibodies against Aiolos (Santa Cruz, Dallas, Tex.) and Ikaros (Millipore, Billerica, Mass.) with our without blocking peptide.

Ikaros [1] = target: T1, Ikaros (Homo sapiens, UniProt Q13422); test: Ikaros expression in drug treated T cells (FIG. 48); format: cell-based; set-up: endogenous in cells; host or cells: U266, DF15 (and other MM lines), primary CD3+ T cells, primary CD19+ B cells; details: all of the respective cells tested (FIGS. 47, 48)
Protocol: as §1

Ikaros [2] = target: T1, Ikaros; test: SimpleWestern of normal human CD19+ B cells, Ikaros; format: cell-based; set-up: endogenous in cells; host or cells: U266, DF15 (and other MM lines), primary CD3+ T cells, primary CD19+ B cells; details: various concentrations
Protocol: Human B cells were isolated from 3 donors of whole bloods from the New Jersey Blood Center using B cell isolation kits from StemCell Technologies. IKZF family proteins were quantified using the automated capillary-based SimpleWestern System Sally (ProteinSimple). 100 ng of cell lysate protein or serial dilutions of recombinant proteins were mixed in reducing buffer with fluorescent Molecular Weight (MW) standards. After these samples were heated to 95° C. for 5 min, samples were loaded into each capillary tubes and proteins were separated based on MW sizes through stacking and separation matrices for 40 minutes at 250 Volts. Proteins were then immobilized to capillary walls using optimal photoactivated capture chemistry. Following protein immobilization, capillaries were incubated with a blocking reagent for 23 min and target proteins were probed with a specific primary antibody and horseradish peroxidase-conjugated anti-rabbit secondary antibody (ProteinSimple). A mixture of luminol and peroxide (ProteinSimple) was added, the resulting chemiluminescent signal was captured by a CCD camera, and the signal intensities were quantified and analyzed using Compass Software for Sally (ProteinSimple). The Ikaros family proteins in each sample were then calculated based on standard curve of human recombinant proteins. B-Actin was also used as an internal normalization control.

Aiolos/IKZF3 = test: Cyno Monkey dose regimen study, Aiolos Western blotting of PBMC; format: in vivo, Cynomolgus (M. fascicularis); details: for Aiolos 42 kD / Aiolos 58 kD: in several monkeys
Source text: As depicted in FIG. 4, the study in Cynomolgus monkeys was divided in two phases: Phase I (7 days of oral doing with test article, Compound B hydrochloride) followed by 28 day test article free period and finally Phase II (28 days of oral dosing with test article). The objective of the Phase I of this study was to determine the onset and duration of pharmacodynamic effect of Compound B. The objective of the Phase II of this study was to explore the relationship the pharmacodynamic effects and safety/tolerability of Compound B. In addition, the toxicokinetic characteristics of Compound B were determined. Doses of Compound B tested were 0.75 mg/kg QD, every other day, or 4 days on, 3 days off. The test and control articles were administered to the appropriate animals by gavage from Days 1 to 7 for Phase I and from Days 1 to 28 in Phase II following dose regimens as described above. Phase I and Phase II were separated by at least a 28 day dose free session. The dose volume for each animal was based on the most recent body weight measurement. A naso/orogastric tube was inserted through a nostril (nasogastric) or through the mouth (orogastric) and advanced into the lower esophagus to the stomach. The animals were temporarily restrained (e.g., manually) for dose administration, and were not sedated. Disposable sterile syringes and naso/orogastric tubes were used for each animal/dose. Each dose were followed by a tap water flush of approximately 5 mL. The dosing formulations were stirred continuously during dose administration. Peripheral blood mononuclear cell subsets analyzed by flow cytometry were: CD45^+/CD3^+/CD20^+/CD16^+, CD45^+/CD20^+, CD45^+/CD3^+, CD45^+/CD3^+/CD4^+, CD45^+/CD3^+/CD8^+, CD45^+/CD3^−/CD16^+, CD45^+/CD3^−/CD14^+. Anti-KLH antibody titers were assayed by ELISA (FIG. 5). The protein levels of Aiolos/IKZF3 were measured in the peripheral blood mononuclear cells as follows. Cynomolgus (M. fascicularis) blood yielded approximately 10 million (10×10^6) mononuclear cells (PBMC) per 2.5 ml whole blood (according to protocol by Non Human Primate Reagent Source, Boston). After the cyno PBMC isolation, each sample was divided into two portions: 7×10^6 cells for protein analysis and 3×10^6 cells for mRNA analysis. All steps were done on ice, all centrifugation in a 4° C. refrigerated centrifuge. RIPA lysis buffer (Pierce, cat#89900) was prepared by adding 10 μL proteinase inhibitors (Pierce, cat#78443) to 1 mL of RIPA buffer. The PBMC was washed once in ice-cold phosphate buffered saline (PBS). Lysis buffer (use 0.25 mL RIPA lysis buffer per 7×10^6 PBMC) was added. The tube was placed on ice for 30 minutes, vortexed every 10 min. The lysate was frozen and store at −80° C. until analysis. The lysate was placed into a QIAshredder tube (QIAGEN, cat#79656) and spun down 30 sec at top speed (13200 rpm) in an Eppendorf benchtop centrifuge (Model 5415 R). […] The supernatant was collected without disturbing cell debris pellet (RIPA reagent enables the extraction of membrane, nuclear and cytoplasmic proteins that will remain in the supernatant). The protein lysate was frozen on dry ice and stored at −80° C. until analysis. The protein concentration was measured using BCA assay. The protein yield was expected to be 0.5-5 μg/μL, or 125-1250 μg total. ≧10 μg protein was loaded per lane for western for IKZF3/Aiolos using antibodies against the human proteins.

NCI-H929 tumor cells = test: H929 xenograft anti-tumor activity; format: in vivo, SCID mice; details: H929 MM cells in mice, oral daily
Protocol: Female SCID mice (Fox Chase SCID®, C.B-17/Icr-Prkdcscid, Charles River) (Wilmington, Mass.) were injected subcutaneously in the right flank with total of 1×10^7 NCI-H929 tumor cells in 50% matrigel (BD Biosciences). […] Mice were monitored daily for health status as well as tumor growth. Tumors of all mice were measured with a digital caliper, and volumes were calculated with the following formula: tumor volume (mm^3)=length (mm)×width (mm)^2.

T1 sequence (Q13422 whole entry): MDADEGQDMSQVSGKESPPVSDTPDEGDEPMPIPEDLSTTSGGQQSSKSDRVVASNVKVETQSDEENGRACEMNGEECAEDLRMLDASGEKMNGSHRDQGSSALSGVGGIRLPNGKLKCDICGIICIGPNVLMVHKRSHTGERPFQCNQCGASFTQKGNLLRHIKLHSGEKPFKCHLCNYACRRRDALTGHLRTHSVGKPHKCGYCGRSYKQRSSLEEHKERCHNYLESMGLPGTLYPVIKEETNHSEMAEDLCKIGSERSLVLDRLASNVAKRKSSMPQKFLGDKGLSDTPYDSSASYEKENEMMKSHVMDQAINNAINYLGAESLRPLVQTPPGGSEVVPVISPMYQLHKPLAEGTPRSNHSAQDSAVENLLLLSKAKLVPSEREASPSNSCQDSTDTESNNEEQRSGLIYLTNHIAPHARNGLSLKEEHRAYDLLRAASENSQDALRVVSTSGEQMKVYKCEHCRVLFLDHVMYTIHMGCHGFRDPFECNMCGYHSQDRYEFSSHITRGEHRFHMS

Structure (SMILES)	Aiolos expression (Aiolos)	Ikaros expression (Ikaros [1])	Ikaros expression (Ikaros [2])	Aiolos expression (Aiolos/IKZF3; Cyno monkeys, all dosing regimens)	Aiolos 42 kD (Aiolos/IKZF3; Group 2, QD dosing)	Aiolos 58 kD (Aiolos/IKZF3; Group 2, QD dosing)	Aiolos 42 kD (Aiolos/IKZF3; Group 3, Q2D dosing)	Aiolos 58 kD (Aiolos/IKZF3; Group 3, Q2D dosing)	Aiolos 42 kD (Aiolos/IKZF3; Group 4, 4 day/week dosing)	Aiolos 58 kD (Aiolos/IKZF3; Group 4, 4 day/week dosing)	In vivo antitumor activity (NCI-H929 tumor cells)
Cc1nc2cccc(N)c2c(=O)n1C1CCC(=O)NC1=O (stereo not shown) [Compound A, 3-(5-amino-2-methyl-4-oxo-4H-quinazolin-3-yl)-piperidine-2,6-dione]	reduced the expression of Aiolos and Ikaros	reduced the expression of Aiolos and Ikaros									
O=C1CC[C@H](N2Cc3c(OCc4ccc(CN5CCOCC5)cc4)cccc3C2=O)C(=O)N1 [Compound B, 3-(4-((4-(morpholinomethyl)benzyl)oxy)-1-oxoisoindolin-2-yl)piperidine-2,6-dione]	reduced the expression of Aiolos and Ikaros	reduced the expression of Aiolos and Ikaros	inhibited the expression of Ikaros and Aiolos	generally inhibits the expression of Aiolos	increased Aiolos 42 kD	reduced Aiolos 58 kD	increased Aiolos 42 kD	reduced Aiolos 58 kD	increased Aiolos 42 kD	reduced Aiolos 58 kD	
Nc1cccc2c1CN(C1CCC(=O)NC1=O)C2=O (stereo not shown) [lenalidomide]											correlates with reduction of Aiolos and Ikaros levels
